Earlier results as cited in US20100286186A1, “NOVEL DICARBOXYLIC ACID LINKED AMINO ACID AND PEPTIDE PRODRUGS OF OPIOIDS AND USES THEREOF” (Shire LLC, priority 2009, published 2010).

Details: in vivo; cited from earlier work

Compound: CC(C)[C@H](N)C(=O)OCCOCn1cnc2c(=O)nc(N)[nH]c21 [valine ester of acyclovir]
- chemical degradation in the GI tract before absorption: 15-25%
